For ten compounds, MIC and Activity results are on record in ChEMBL document CHEMBL5120842, “Application of partially aromatic ortho-quionone-methides for the synthesis of novel naphthoxazines with improved antibacterial activity” (2022).

Values after ≈ are worked out from the molar mass of the structure shown. A value given as a limit tells only on which side of the number the result lay.

Common to all, as to assay type: functional
In test [1] the test system is Staphylococcus aureus. Description: Antibacterial activity against Gram-positive methicillin-susceptible Staphylococcus aureus ATCC 25923 assessed as inhibition of bacterial growth by CLSI protocol based assay.
In test [2] the test system is Staphylococcus aureus. Description: Antibacterial activity against Gram-positive methicillin and oxacillin-resistant Staphylococcus aureus ATCC 43300 assessed as inhibition of bacterial growth by CLSI protocol based assay.
The test system of test [3] is Escherichia coli. Put plainly: Antibacterial activity against Gram-negative Escherichia coli K-12 AG100 expressing AcrAB-TolC efflux pump assessed as inhibition of bacterial growth by CLSI protocol based assay.
The subject of test [4] is Escherichia coli. Description: Antibacterial activity against Gram-negative Escherichia coli K-12 AG100 expressing AcrAB-TolC efflux pump assessed as inhibition of efflux pump by measuring intracellular accumulation of ethidium bromide at 50 uM and measured every minute for 1 hr by fluorescence based microtiter plate reader analysis.
Test [5] concerns Escherichia coli. Description: Antibacterial activity against Gram-negative Escherichia coli K-12 AG100 expressing AcrAB-TolC efflux pump assessed as inhibition of efflux pump by measuring intracellular accumulation of ethidium bromide at 100 uM and measured every minute for 1 hr by fluorescence based microtiter plate reader analysis.
The subject of test [6] is Escherichia coli. Description: Inhibition of efflux pump in Gram-negative Escherichia coli K-12 AG100 expressing AcrAB-TolC efflux pump assessed as relative fluorescence index using ethidium bromide as substrate at 50 uM and measured after 1 hr by fluorescence based microtiter plate reader analysis.
Test [7] deals with Escherichia coli. Put plainly: Inhibition of efflux pump in Gram-negative Escherichia coli K-12 AG100 expressing AcrAB-TolC efflux pump assessed as relative fluorescence index using ethidium bromide as substrate at 100 uM and measured after 1 hr by fluorescence based microtiter plate reader analysis.
For test [8], the system named is Staphylococcus aureus. Description: Antibacterial activity against Gram-positive methicillin-susceptible Staphylococcus aureus ATCC 25923 assessed as inhibition of efflux pump by measuring intracellular accumulation of ethidium bromide at 50 uM and measured every minute for 1 hr by fluorescence based microtiter plate reader analysis.
In test [9] the test system is Staphylococcus aureus. Description: Antibacterial activity against Gram-positive methicillin-susceptible Staphylococcus aureus ATCC 25923 assessed as inhibition of efflux pump by measuring intracellular accumulation of ethidium bromide at 100 uM and measured every minute for 1 hr by fluorescence based microtiter plate reader analysis.
Test [10] has as its system Staphylococcus aureus. Description: Inhibition of efflux pump in Gram-positive methicillin-susceptible Staphylococcus aureus ATCC 25923 assessed as relative fluorescence index using ethidium bromide as substrate at 50 uM and measured after 1 hr by fluorescence based microtiter plate reader analysis.
Test [11] relates to Staphylococcus aureus. Description: Inhibition of efflux pump in Gram-positive methicillin-susceptible Staphylococcus aureus ATCC 25923 assessed as relative fluorescence index using ethidium bromide as substrate at 100 uM and measured after 1 hr by fluorescence based microtiter plate reader analysis.
Test [12] relates to Staphylococcus aureus. Put plainly: Antibacterial activity against Gram-positive methicillin and oxacillin-resistant Staphylococcus aureus ATCC 43300 assessed as inhibition of efflux pump by measuring intracellular accumulation of ethidium bromide at 50 uM and measured every minute for 1 hr by fluorescence based microtiter plate reader analysis.
Test [13] has as its system Staphylococcus aureus. Put plainly: Antibacterial activity against Gram-positive methicillin and oxacillin-resistant Staphylococcus aureus ATCC 43300 assessed as inhibition of efflux pump by measuring intracellular accumulation of ethidium bromide at 100 uM and measured every minute for 1 hr by fluorescence based microtiter plate reader analysis.
Test [14] deals with Staphylococcus aureus. Put plainly: Inhibition of efflux pump in Gram-positive methicillin and oxacillin-resistant Staphylococcus aureus ATCC 43300 assessed as relative fluorescence index using ethidium bromide as substrate at 50 uM and measured after 1 hr by fluorescence based microtiter plate reader analysis.
For test [15], the system named is Staphylococcus aureus. Put plainly: Inhibition of efflux pump in Gram-positive methicillin and oxacillin-resistant Staphylococcus aureus ATCC 43300 assessed as relative fluorescence index using ethidium bromide as substrate at 100 uM and measured after 1 hr by fluorescence based microtiter plate reader analysis.
The subject of test [16] is Staphylococcus aureus. Description: Antibacterial activity against Gram-positive methicillin-susceptible Staphylococcus aureus ATCC 25923 assessed as inhibition of efflux pump by measuring intracellular accumulation of ethidium bromide at 3.125 uM and measured every minute for 1 hr by fluorescence based microtiter plate reader analysis.
For test [17], the system named is Staphylococcus aureus. Description: Inhibition of efflux pump in Gram-positive methicillin-susceptible Staphylococcus aureus ATCC 25923 assessed as relative fluorescence index using ethidium bromide as substrate at 3.125 uM and measured after 1 hr by fluorescence based microtiter plate reader analysis.
Test [18] has as its system Staphylococcus aureus. Put plainly: Antibacterial activity against Gram-positive methicillin and oxacillin-resistant Staphylococcus aureus ATCC 43300 assessed as inhibition of efflux pump by measuring intracellular accumulation of ethidium bromide at 25 uM and measured every minute for 1 hr by fluorescence based microtiter plate reader analysis.
Test [19] deals with Staphylococcus aureus. Description: Inhibition of efflux pump in Gram-positive methicillin and oxacillin-resistant Staphylococcus aureus ATCC 43300 assessed as relative fluorescence index using ethidium bromide as substrate at 25 uM and measured after 1 hr by fluorescence based microtiter plate reader analysis.
Test [20] concerns Staphylococcus aureus. Put plainly: Antibacterial activity against Gram-positive methicillin-susceptible Staphylococcus aureus ATCC 25923 assessed as inhibition of efflux pump by measuring intracellular accumulation of ethidium bromide at 25 uM and measured every minute for 1 hr by fluorescence based microtiter plate reader analysis.
Test [21] relates to Staphylococcus aureus. Description: Inhibition of efflux pump in Gram-positive methicillin-susceptible Staphylococcus aureus ATCC 25923 assessed as relative fluorescence index using ethidium bromide as substrate at 25 uM and measured after 1 hr by fluorescence based microtiter plate reader analysis.

In the case of `CCOC(=O)C(c1ccc2ccccc2c1O)N1CCOCC1` (centres undefined), the minimum inhibitory concentration (MIC) in the test with Staphylococcus aureus [1], in the test with Staphylococcus aureus [2] and in the test on Escherichia coli [3] was over 100 µM each time. Besides, the Activity in the test with Escherichia coli [4] was 7485.67; in the test on Escherichia coli [5] it was 6561.67; in the test with Escherichia coli [6], -0.78; in the test with Escherichia coli [7], -0.81; with Staphylococcus aureus [8], 11677.33; in the test on Staphylococcus aureus [9] it was 7624.33. The Activity is -0.58 in the test with Staphylococcus aureus [10]; -0.72 in the test with Staphylococcus aureus [11]; 56126.33 with Staphylococcus aureus [12]; 18886 with Staphylococcus aureus [13]; -0.28 in the test with Staphylococcus aureus [14]; -0.76 with Staphylococcus aureus [15].

With `CCOC(=O)C(c1c(O)ccc2ccccc12)N1CCOCC1` (centres undefined), the MIC with Staphylococcus aureus [1], in the test on Staphylococcus aureus [2] and with Escherichia coli [3] was over 100 µM throughout. In addition, the Activity in the test with Escherichia coli [4] is 44310; with Escherichia coli [5], 36685.33; in the test on Escherichia coli [6] it was 0.29; in the test with Escherichia coli [7], 0.07; in the test with Staphylococcus aureus [8], 58168.67; in the test on Staphylococcus aureus [9], 51721. The Activity in the test with Staphylococcus aureus [10] turned out to be 1.1; in the test on Staphylococcus aureus [11], 0.87; in the test on Staphylococcus aureus [12] it was 87762.67; with Staphylococcus aureus [13], 84280; in the test with Staphylococcus aureus [14], 0.12; in the test with Staphylococcus aureus [15], 0.08.

With `CCOC(=O)[C@H]1c2c(ccc3ccccc23)O[C@@H]2c3ccsc3CCN21` (relative stereo), the MIC with Staphylococcus aureus [1], with Staphylococcus aureus [2] and with Escherichia coli [3] was over 100 µM each time. Besides, the Activity amounted to 34078.33 with Escherichia coli [4]; 34921.33 in the test on Escherichia coli [5]; 0 in the test on Escherichia coli [6]; 0.02 in the test with Escherichia coli [7]; 29306 in the test on Staphylococcus aureus [8]; 33816.67 in the test with Staphylococcus aureus [9]. The Activity in the test on Staphylococcus aureus [10] worked out at 0.06; with Staphylococcus aureus [11] it was 0.22; with Staphylococcus aureus [12], 88184.67; in the test on Staphylococcus aureus [13], 88655.67; in the test on Staphylococcus aureus [14], 0.13; in the test on Staphylococcus aureus [15], 0.14.

With `CCOC(=O)[C@H]1c2c(ccc3ccccc23)O[C@@H]2c3ccccc3CCN21` (relative stereo), the MIC in the test on Staphylococcus aureus [1], in the test with Staphylococcus aureus [2] and with Escherichia coli [3] was over 100 µM in each case. In addition, the Activity in the test on Escherichia coli [4] came out at 35837.67; in the test with Escherichia coli [5], 36732; in the test with Escherichia coli [6] it was 0.05; with Escherichia coli [7], 0.07; in the test with Staphylococcus aureus [8], 31759; in the test with Staphylococcus aureus [9], 31231.67. The Activity in the test with Staphylococcus aureus [10] came to 0.15; in the test with Staphylococcus aureus [11] it was 0.13; in the test on Staphylococcus aureus [12], 92734; with Staphylococcus aureus [13] it was 93822.67; in the test on Staphylococcus aureus [14] it was 0.19; in the test on Staphylococcus aureus [15] it was 0.2.

As for `CCOC(=O)[C@H]1c2c(ccc3ccccc23)O[C@@H]2c3[nH]c4ccccc4c3CCN21` (relative stereo), the minimum inhibitory concentration (MIC) in the test on Staphylococcus aureus [1], in the test on Staphylococcus aureus [2] and in the test with Escherichia coli [3] was over 100 µM each time. Moreover, the Activity with Escherichia coli [4] stood at 34706; in the test with Escherichia coli [5], 36337.67; in the test with Escherichia coli [6] it was 0.01; with Escherichia coli [7], 0.06; in the test with Staphylococcus aureus [8], 27892.33; in the test on Staphylococcus aureus [9], 29131.67. In addition, the Activity in the test with Staphylococcus aureus [10] was 0.01; in the test on Staphylococcus aureus [11], 0.05; in the test on Staphylococcus aureus [12] it was 76072; with Staphylococcus aureus [13] it was 78009; with Staphylococcus aureus [14], -0.03; in the test with Staphylococcus aureus [15], 0.

On to `CCOC(=O)[C@H]1c2ccc3ccccc3c2O[C@@H]2c3[nH]c4ccccc4c3CCN21` (relative stereo), for which the MIC is 6.25 µM (≈ 2.49 µg/mL) in the test with Staphylococcus aureus [1], over 100 µM in the test on Staphylococcus aureus [2] and over 100 µM with Escherichia coli [3]. Also, the Activity was 33567.67 in the test on Escherichia coli [4]; 32220.33 in the test on Escherichia coli [5]; -0.02 in the test with Escherichia coli [6]; -0.06 in the test on Escherichia coli [7]; 34824.33 in the test with Staphylococcus aureus [16]; 0.26 with Staphylococcus aureus [17]. Besides, the Activity in the test on Staphylococcus aureus [12] was 84683; with Staphylococcus aureus [13] it was 90479.33; in the test on Staphylococcus aureus [14], 0.09; in the test with Staphylococcus aureus [15] it was 0.16.

Consider `CCOC(=O)[C@H]1c2ccc3ccccc3c2O[C@@H]2c3ccsc3CCN21` (relative stereo), for which the MIC in the test on Staphylococcus aureus [1], with Staphylococcus aureus [2] and with Escherichia coli [3] was over 100 µM each time. Further, the Activity in the test on Escherichia coli [4] turned out to be 34561.67; in the test on Escherichia coli [5], 35945.67; in the test on Escherichia coli [6] it was 0.01; in the test on Escherichia coli [7], 0.05; in the test on Staphylococcus aureus [8], 36826.67; in the test with Staphylococcus aureus [9] it was 77859.67. The Activity in the test on Staphylococcus aureus [10] worked out at 0.33; in the test with Staphylococcus aureus [11], 1.82; with Staphylococcus aureus [12], 101450.33; with Staphylococcus aureus [13] it was 103410; in the test with Staphylococcus aureus [14], 0.3; with Staphylococcus aureus [15] it was 0.33.

Regarding `CCOC(=O)[C@H]1c2ccc3ccccc3c2O[C@@H]2c3ccccc3CCN21` (relative stereo), the MIC in the test on Staphylococcus aureus [1], in the test on Staphylococcus aureus [2] and in the test on Escherichia coli [3] was over 100 µM each time. In addition, the Activity in the test on Escherichia coli [4] came to 37156.33; with Escherichia coli [5], 36999.33; in the test on Escherichia coli [6] it was 0.09; with Escherichia coli [7] it was 0.08; in the test on Staphylococcus aureus [8], 44414.33; in the test on Staphylococcus aureus [9], 42864. Besides, the Activity in the test on Staphylococcus aureus [10] amounted to 0.61; in the test on Staphylococcus aureus [11] it was 0.55; in the test with Staphylococcus aureus [12], 111300.67; with Staphylococcus aureus [13], 114226; in the test on Staphylococcus aureus [14], 0.43; in the test with Staphylococcus aureus [15], 0.46.

Consider `N#CC(C#N)=NNc1cccc(Cl)c1` [CARBONYL CYANIDE M-CHLOROPHENYLHYDRAZONE], for which the Activity came to 72448.33 in the test with Escherichia coli [4] and 1.12 in the test on Escherichia coli [6].

`COC(=O)[C@H]1[C@H]2C[C@@H]3c4[nH]c5cc(OC)ccc5c4CCN3C[C@H]2C[C@@H](OC(=O)c2cc(OC)c(OC)c(OC)c2)[C@@H]1OC` [RESERPINE]: the Activity stood at 101532.7 in the test with Staphylococcus aureus [18], 0.3 in the test with Staphylococcus aureus [19], 54056 in the test on Staphylococcus aureus [20] and 0.96 with Staphylococcus aureus [21].

The MIC is the least concentration at which growth counts as inhibited.
